According to patent publication US20070270362A1, “Methods and compositions for prevention or treatment of inflammatory-related diseases and disorders” (The University of Washington, priority 2006, published 2007):
“Also recorded” adds a separate entry of the source.

What was measured:
[1] = tested on: Jurkat cells or PBMC adhering to cytochalasin D-retracted BAEC or BAEC-derived matrix; test: Ligand-induced adhesion (LIA) of unstimulated lymphocytes to retracted EC or EC matrix; format: cell-based, human; details: for adhesion to retracted BAEC or EC matrix (LIA): Jurkat or PBMC treated with 20 μM inhibitor for 30 min, adhesion 30 min; for ligand-induced cell adhesion: same dose (1 μM) treatment of Jurkat cells
Protocol: (§1) Cells. Jurkat cells and Ramos B cells were obtained from the American Type Culture Collection (ATCC) and were cultured in RPMI (Mediatech, Herndon Va.) supplemented with glutaMAX-1 (Invitrogen, Carlsbad Calif.), 1 mM sodium pyruvate (BioWhittaker, Walkersville Md.), nonessential amino acids (NEAA) (BioWhittaker) and 10% fetal bovine serum (FBS) (Hyclone, Logan Utah). Peripheral blood was obtained from healthy donors with informed consent according to protocols approved by the Human Subjects Review Committee of the University of Washington. PBMC were isolated by Ficoll-Hypaque (Pharmacia, Piscataway, N.J.) gradient centrifugation and washed with PBS. HUVEC were isolated and cultured as previously described (Schwartz et al., J Immunol 162: 4842-8, 1999) and were grown in RPMI 1640 with supplemented with 2 mM glutamine, sodium pyruvate, NEAA, 10 mM HEPES, 100 U/ml penicillin, 100 U/ml streptomycin, 250 ng/ml fungizone (BioWhittaker), 90 mg/ml heparin (Sigma, St. Louis, Mo.), bovine hypothalamic extract (gift of E. Raines, University of Washington, Seattle, Wash.), and 10% bovine calf serum supplemented with iron (HyClone). HUVEC were cultured on surfaces coated with 2% gelatin (Sigma). BAEC were a gift of Helene Sage (Hope Heart Institute, Seattle Wash.) and were grown in DMEM (Mediatech) supplemented with glutaMAX-1, sodium pyruvate and 8% FBS. EC matrix was prepared by lysis of a confluent layer of EC with 20 mM NH4OH at 37° C. for 5 min (Kato and Gospodarowicz, J Cell Biol 100: 486-95, 1985) and blocked briefly with growth medium. Adhesion assays. Lymphocytes were labeled with 2.5 mM calcein-AM (Molecular Probes, Eugene, Oreg.) at room temperature for 20-40 min, washed, and resuspended in HBSS with calcium and magnesium (Mediatech) supplemented with 0.1% BSAnd 4 mM HEPES. Lymphocytes were incubated with inhibitors or function-blocking antibodies at 37° C. for 15-30 min and tested for LIA or phorbol ester-stimulated adhesion to EC or to EC matrix for 15-30 min at 37° C. Adhesion was measured by a Cytofluor Series 4000 fluorescence plate reader (PerSeptive Biosystems, Framingham, Mass.). Plates were scanned before and after washing for total and adherent cells, respectively. Statistical significance was deteremined by Student's t-Test. In some cases, EC were labeled with Cell Tracker Orange (Molecular Probes) per manufacturers instructions prior to adhesion. Cells were fixed after adhesion assays and adherent cells were directly visualized by fluorescent microscopy. Underlying fibronectin fibrils were visualized with polyclonal anti-bovine fibronectin antibody (Accurate), followed by Alexa-568 conjugated secondary antibody (Molecular Probes).

BAEC or HUVEC monolayer = test: Lymphocyte adhesion to endothelial cells treated with retracting or apoptosis-inducing agents; format: cell-based; details: for lymphocyte adhesion to EC treated with the agent: BAEC or HUVEC
Protocol: as §1, with “HUVEC were isolated and cultured as previously described (Schwartz et al., J Immunol 162: 4842-8, 1999) and were grown in RPMI 1640 with supplemented with 2 mM glutamine, sodium pyruvate, NEAA, 10 mM HEPES, 100 U/ml penicillin, 100 U/ml streptomycin, 250 ng/ml fungizone (BioWhittaker), 90 mg/ml heparin (Sigma, St. Louis, Mo.), bovine hypothalamic extract (gift of E. Raines, University of Washington, Seattle, Wash.), and 10% bovine calf serum supplemented with iron (HyClone).” left out, “EC matrix was prepared by lysis of a confluent layer of EC with 20 mM NH4OH at 37° C. for 5 min (Kato and Gospodarowicz, J Cell Biol 100: 486-95, 1985) and blocked briefly with growth medium.” left out, “microscopy.” for “microscopy. Underlying fibronectin fibrils were visualized with polyclonal anti-bovine fibronectin antibody (Accurate), followed by Alexa-568 conjugated secondary antibody (Molecular Probes).”

Jurkat cells = details: 1 μM treatment of Jurkat cells; previously reported; cited from earlier work
[2] = tested on: retinoblastoma protein (Rb), Cdk2 specific site (T821) and Cdk4 specific site (249/252); test: Western blot of Rb phosphorylation with phospho-specific antibodies; format: cell-based; details: Jurkat cells, 20 μM, 30 min
Protocol: Western Blot Analysis. Equal numbers of Jurkat cells (1×10^6) were lysed in buffer containing 50 mM Hepes, pH 7.5, 10 mM NaCl, 5 mM MgCl2, 1 mM EGTA, 1 μg/ml leupeptin, 1 μg/ml aprotinin, 1% triton, and 10% glycerol and Complete Mini Protease Inhibitor Cocktail (Roche). Equal amounts of protein were separated by SDS-PAGE, transferred to Immobilon and blocked for 1 hour. Blots were incubated with primary antibody for 1 hour, followed by peroxidase-conjugated secondary antibody for 1 hour and then developed with Enhanced Chemiluminescence (ECL, Amersham). […] Anti-Cdk2 and anti-Cdk4 antibodies were obtained from eBioscience.

[3] = tested on: PBMC migrating through confluent HUVEC monolayer; test: Transendothelial migration assay; format: cell-based, human
Protocol: Flow cytometry. Integrin subunit expression levels were analyzed by a FACScan (Becton Dickinson) instrument. Analyzed cells were incubated in integrin antibodies for 30 min, followed by incubation with fluorescein-labeled secondary antibodies for 30 mins. Migration Assays. Calcein-labeled PBMC were treated with purvanalol for 15 min, then added to a confluent monolayer of HUVEC grown on collagen-coated transwell (3 micron pore size, Costar-Corning). PBMC were allowed to migrate for 4 hours at 37° C. Number of migrated cells in bottom chamber was counted. […] In addition, in some experiments, equal numbers of PBMC were allowed to adhere to HUVEC, then treated with purvanaol, to verify that differences in migration were not simply due to differences in initial adhesion. All assays were performed in triplicate. Integrity of the endothelial monolayer was verified by measurements of transendothelial resistance before and after migration assay.

Which “adhesion to retracted BAEC or EC matrix (LIA)” value (shortened to “adhesion … (LIA)”) [1] does the source give for `CC(C)[C@H](CO)Nc1nc(Nc2cc(N)cc(Cl)c2)c2ncn(C(C)C)c2n1` [aminopurvalanol A] here?
The value was “block ligand-induced adhesion; also recorded: significantly reduced”.

What does the source list for Thrombin?
endothelial cell retraction (BAEC or HUVEC monolayer): caused endothelial cell retraction; increase of Jurkat cell adhesion to treated BAEC (BAEC or HUVEC monolayer; Jurkat cells, BAEC): 4-5 fold

Which “phorbol ester-stimulated cell adhesion” value (Jurkat cells) does the source give for `C=C1[C@@H](C)[C@H]2[C@H](Cc3ccccc3)NC(=O)[C@]23[C@H](OC(C)=O)/C=C/[C@@](C)(O)C(=O)[C@@H](C)C/C=C/[C@H]3[C@@H]1O` [cytochalasin D] here?
Its value is “Inhibited by cytochalasin D”.

And the endothelial cell retraction (BAEC or HUVEC monolayer)?
Its endothelial cell retraction is “caused endothelial cell retraction”.

And the “PBMC adhesion to treated EC versus untreated EC” value (BAEC or HUVEC monolayer; PBMC)?
The value was 5-6 fold.

And the ligand-induced cell adhesion [1]?
The ligand-induced cell adhesion was “Not affected by cytochalasin D”.

What about the ligand-induced cell adhesion ([1]; listed as cytochalasin) of the same compound?
The ligand-induced cell adhesion was “no affect”.

Which “inhibition of LIA by inhibitors of other pathways” value (“inhibition of LIA” below) [1] does the source give for `COc1cccc(-c2cc(=O)c3ccccc3o2)c1N` [PD98059] here?
Its value is “did not inhibit LIA”.

Which “adhesion … (LIA)” value [1] does the source give for `CC[C@H](CO)Nc1nc(NCc2ccccc2)c2ncn(C(C)C)c2n1` [roscovitine] here?
The value was “block ligand-induced adhesion; also recorded: significantly reduced”.

Which endothelial cell retraction (BAEC or HUVEC monolayer) does the source give for `O=C(O)CN(CCN(CC(=O)O)CC(=O)O)CC(=O)O` [EDTA] here?
Its endothelial cell retraction is “caused endothelial cell retraction”.

For `CC[C@]1(O)C[C@@H]2CN(CCc3c([nH]c4ccccc34)[C@@](C(=O)OC)(c3cc4c(cc3OC)N(C)[C@H]3[C@@](O)(C(=O)OC)[C@H](OC(C)=O)[C@]5(CC)C=CCN6CC[C@]43[C@@H]65)C2)C1` [vinblastine], which endothelial cell retraction (BAEC or HUVEC monolayer) is on record?
Its endothelial cell retraction is “failed to induce retraction”.

And the “lymphocyte adhesion to EC treated with the agent” value (“lymphocyte adhesion to EC treated” for short) (BAEC or HUVEC monolayer)?
The value was “failed to produce comparable lymphocyte adhesion”.

Which endothelial cell retraction (BAEC or HUVEC monolayer) does the source give for latrunculin here?
Its endothelial cell retraction is “caused endothelial cell retraction”.

With `C[C@@H](N)[C@H]1CC[C@H](C(=O)Nc2ccncc2)CC1` [Y-7632] as the compound, how does the “inhibition of LIA” value [1] read?
Its value is “did not inhibit LIA”.

Which results are given for `CC(=O)O[C@H]1C(=O)[C@@]2(C)[C@H]([C@H](OC(=O)c3ccccc3)[C@]3(O)C[C@H](OC(=O)[C@H](O)[C@@H](NC(=O)c4ccccc4)c4ccccc4)C(C)=C1C3(C)C)[C@]1(OC(C)=O)CO[C@@H]1C[C@@H]2O` [paclitaxel]?
endothelial cell retraction (BAEC or HUVEC monolayer): failed to induce retraction; lymphocyte adhesion to EC treated with the agent (BAEC or HUVEC monolayer): failed to produce comparable lymphocyte adhesion

For `CC(C)[C@H](CO)Nc1nc(Nc2cccc(Cl)c2)c2ncn(C(C)C)c2n1` [purvalanol A], which “phosphorylation of Rb at Cdk2 site (T821) and Cdk4 site (249/252)” value [2] is on record?
The value was “block Rb phosphorylation”.

What about the “initial adhesion of PBMC to confluent endothelial cells” value [3] of the same compound?
Its value is “did not affect initial adhesion”.

And the “PBMC migration through confluent endothelial monolayer” value ([3]; HUVEC on transwell)?
The value was “inhibited”.

What about the “adhesion … (LIA)” value [1] of the same compound?
Its value is “block ligand-induced adhesion; also recorded: significantly reduced”.

With `O=c1c(-c2ccc(O)cc2)coc2cc(O)cc(O)c12` [genistein] as the compound, how does the “inhibition of LIA” value [1] read?
Its value is “did not inhibit LIA”.

Which endothelial cell retraction (BAEC or HUVEC monolayer) does the source give for `COC(=O)Nc1nc2cc(C(=O)c3cccs3)ccc2[nH]1` [nocadozole] here?
Its endothelial cell retraction is “failed to induce retraction”.

What about the “lymphocyte adhesion to EC treated” value (BAEC or HUVEC monolayer) of the same compound?
Its value is “failed to produce comparable lymphocyte adhesion”.

With `CN[C@@H]1C[C@H]2O[C@@](C)([C@@H]1OC)n1c3ccccc3c3c4c(c5c6ccccc6n2c5c31)C(=O)NC4` [staurosporine] as the compound, how does the endothelial cell retraction (BAEC or HUVEC monolayer) read?
The endothelial cell retraction was “caused endothelial cell retraction”.

Which endothelial cell retraction (BAEC or HUVEC monolayer) does the source give for `COc1cc2c(c(OC)c1OC)-c1ccc(OC)c(=O)cc1[C@@H](NC(C)=O)CC2` [colchicine] here?
The endothelial cell retraction was “failed to induce retraction”.

What about the “lymphocyte adhesion to EC treated” value (BAEC or HUVEC monolayer) of the same compound?
The value was “failed to produce comparable lymphocyte adhesion”.
